# Experimental data reported in patent publication US12581252B2, “Substituted pyrrolo[3,4-b]pyridines as PI3K-α inhibitors” (Relay Therapeutics, Inc., priority 2020, dated 2026).
# Molecular target: H1047R PIK3CA enzyme (Homo sapiens, UniProt P42336, H1047R)
# Assay: ADP-Glo Biochemical PIK3CA Kinase Assay
# H1047R PIK3CA enzyme, sequence (P42336 whole entry H1047R): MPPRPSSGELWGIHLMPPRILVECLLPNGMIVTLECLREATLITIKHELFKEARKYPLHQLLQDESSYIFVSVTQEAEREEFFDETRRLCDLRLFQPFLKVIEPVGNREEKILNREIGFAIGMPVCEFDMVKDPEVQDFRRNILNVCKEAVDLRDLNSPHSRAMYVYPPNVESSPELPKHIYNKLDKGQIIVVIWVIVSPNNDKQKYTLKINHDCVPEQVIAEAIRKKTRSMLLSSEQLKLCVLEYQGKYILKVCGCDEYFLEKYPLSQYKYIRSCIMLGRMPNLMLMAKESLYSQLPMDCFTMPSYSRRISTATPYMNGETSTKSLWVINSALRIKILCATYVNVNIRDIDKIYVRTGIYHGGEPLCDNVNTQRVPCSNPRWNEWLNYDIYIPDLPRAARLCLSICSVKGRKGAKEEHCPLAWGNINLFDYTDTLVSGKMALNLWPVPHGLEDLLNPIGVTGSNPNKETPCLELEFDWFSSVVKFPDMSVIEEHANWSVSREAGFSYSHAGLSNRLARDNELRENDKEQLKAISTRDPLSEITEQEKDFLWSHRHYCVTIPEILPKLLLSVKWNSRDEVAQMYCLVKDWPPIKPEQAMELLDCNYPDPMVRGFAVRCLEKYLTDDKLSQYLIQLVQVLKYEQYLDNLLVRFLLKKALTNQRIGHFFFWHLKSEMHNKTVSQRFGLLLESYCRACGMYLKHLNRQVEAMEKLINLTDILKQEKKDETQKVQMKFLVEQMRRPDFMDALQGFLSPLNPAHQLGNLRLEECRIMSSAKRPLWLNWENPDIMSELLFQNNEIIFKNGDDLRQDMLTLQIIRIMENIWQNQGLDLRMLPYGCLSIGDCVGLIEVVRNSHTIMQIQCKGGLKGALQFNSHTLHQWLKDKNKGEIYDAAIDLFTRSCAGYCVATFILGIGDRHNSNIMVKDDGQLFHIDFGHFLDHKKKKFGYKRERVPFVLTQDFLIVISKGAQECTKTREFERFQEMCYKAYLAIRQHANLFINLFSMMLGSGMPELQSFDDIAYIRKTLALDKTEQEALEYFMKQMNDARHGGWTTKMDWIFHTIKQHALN
# H1047R PIK3CA enzyme, sequence (P27986 whole entry partner): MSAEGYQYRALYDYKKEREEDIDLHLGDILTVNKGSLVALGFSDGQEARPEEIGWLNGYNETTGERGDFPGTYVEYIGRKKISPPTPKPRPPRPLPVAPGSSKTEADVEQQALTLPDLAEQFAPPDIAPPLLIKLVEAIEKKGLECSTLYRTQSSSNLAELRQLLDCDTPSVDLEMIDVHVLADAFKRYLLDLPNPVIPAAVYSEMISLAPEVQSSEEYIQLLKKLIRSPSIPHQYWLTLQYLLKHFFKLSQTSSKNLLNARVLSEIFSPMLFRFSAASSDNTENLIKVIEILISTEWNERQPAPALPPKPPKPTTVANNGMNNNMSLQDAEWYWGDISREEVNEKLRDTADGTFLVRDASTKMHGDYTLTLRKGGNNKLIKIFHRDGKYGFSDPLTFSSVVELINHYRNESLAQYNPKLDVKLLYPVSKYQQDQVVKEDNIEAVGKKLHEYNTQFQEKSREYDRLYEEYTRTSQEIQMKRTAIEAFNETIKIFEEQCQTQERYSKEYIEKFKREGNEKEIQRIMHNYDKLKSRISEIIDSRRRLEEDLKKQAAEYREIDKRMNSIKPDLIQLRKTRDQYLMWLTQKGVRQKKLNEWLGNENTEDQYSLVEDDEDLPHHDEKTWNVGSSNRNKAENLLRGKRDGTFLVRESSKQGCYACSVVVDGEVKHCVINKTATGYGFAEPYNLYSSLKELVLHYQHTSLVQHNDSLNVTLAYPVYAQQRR
row,Compound,IC50
1,Cc1ccccc1C1NC(=O)c2cc(CF)cc(NC(=O)c3cc(F)cc(C(F)(F)F)c3)c21 (stereo not shown) [Compound I-536],≤ 100 nM
2,O=C(Nc1cc(Br)cc2c1C(c1cc(F)ccc1Cl)NC2=O)c1cccc(Cl)c1 (stereo not shown) [Compound I-573],500 to 1000 nM
3,O=C(Nc1cc(CCC(F)(F)F)nc2c1C(c1cc(F)ccc1Cl)NC2=O)c1cc(F)cc(C(F)(F)F)c1 (stereo not shown) [Compound I-529],≤ 100 nM
4,O=C1NC(c2cc(F)ccc2Cl)c2c(NC(=O)N3CC(CO)C(C(F)(F)F)C3)cccc21 (stereo not shown) [Compound I-2181],10000 to 100000 nM
5,Nc1cc(NC(=O)c2cc(F)cc(C(F)(F)F)c2)c2c(n1)C(=O)NC2c1cc(F)ccc1Cl (stereo not shown) [Compound I-273],100 to 500 nM
6,Cn1ccc(-c2cc(NC(=O)c3cc(F)cc(C(F)(F)F)c3)c3c(c2)C(=O)NC3c2cc(F)ccc2Cl)cc1=O (stereo not shown) [Compound I-889],≤ 100 nM
7,O=C(CCC(F)F)Nc1cc(NC(=O)c2cc(F)cc(C(F)(F)F)c2)c2c(c1)C(=O)NC2c1cc(F)ccc1Cl (stereo not shown) [Compound I-360],≤ 100 nM
8,N#Cc1c(-c2cc(NC(=O)c3cc(F)cc(Cl)c3)c3c(c2)C(=O)N[C@H]3c2cc(F)ccc2Cl)ccc2ncnn12 [Compound I-2063],500 to 1000 nM
9,O=C(Nc1cc(Cn2cccn2)cc2c1[C@@H](c1cc(F)ccc1Cl)NC2=O)c1cc(F)cc(C(F)(F)F)c1 (stereo in doubt) [Compound I-1614],100 to 500 nM
10,O=C1NC(c2cc(F)ccc2Cl)c2c(NC(=O)C3(C(F)(F)F)CC3)cc(Br)cc21 (stereo not shown) [Compound I-1204],10000 to 100000 nM
11,NCc1cc(NC(=O)c2cc(F)cc(C(F)(F)F)c2)c2c(c1)C(=O)NC2c1cc(F)ccc1Cl (stereo not shown) [Compound I-126],≤ 100 nM
12,O=C1N[C@H](c2cc(F)ccc2Cl)c2c(NC(=O)N3C[C@H](O)C[C@@H]3CC(F)(F)F)cccc21 (racemic) [Compound I-2163],10000 to 100000 nM
13,O=C(Nc1cccc2c(=O)[nH]n(-c3cc(F)ccc3Cl)c12)c1cc(F)cc(C(F)(F)F)c1 [Compound I-323],1000 to 10000 nM
14,O=C(Nc1cccc2c1C(c1cccc(F)c1)NC2=O)c1cc(F)cc(C(F)(F)F)c1 (stereo not shown) [Compound I-390],1000 to 10000 nM
15,CC(C)(O)c1cc(NC(=O)c2cc(F)cc(Cl)c2)c2c(c1)C(=O)N[C@@H]2c1cc(F)ccc1Cl [Compound I-299],10000 to 100000 nM
16,O=C1NC(c2cc(F)ccc2Cl)c2c(NC(=O)C3CCCC3)cc(-c3ccc4ncnn4c3)cc21 (stereo not shown) [Compound I-1782],10000 to 100000 nM
17,N#Cc1nnc2ccc(-c3cc(NC(=O)c4cc(F)cc(C(F)(F)F)c4)c4c(c3)C(=O)NC4c3cc(F)ccc3Cl)cn12 (stereo not shown) [Compound I-1708],≤ 100 nM
18,O=C(Nc1cc(Br)cc2c1C(c1cc(F)ccc1Cl)NC2=O)c1cc2ccccc2[nH]1 (stereo not shown) [Compound I-1610],1000 to 10000 nM
19,O=C(Nc1cc(C#Cc2ccn[nH]2)cc2c1C(c1cc(F)ccc1Cl)NC2=O)c1cc(F)cc(C(F)(F)F)c1 (stereo not shown) [Compound I-1244],≤ 100 nM
20,CSc1nc(NC(=O)c2cc(F)cc(C(F)(F)F)c2)c2c(n1)C(=O)NC2c1ccccc1Cl (stereo not shown) [Compound I-183],1000 to 10000 nM
21,"O=C1N[C@H](c2cc(F)ccc2Cl)c2c(NC(=O)N3C[C@H](O)c4ccccc43)cc(Br)cc21 (single isomer, unassigned) [Compound I-1513]",100 to 500 nM
22,O=C(Nc1cc(O[C@@H]2COC[C@H]2O)cc2c1C(c1cc(F)ccc1Cl)NC2=O)c1cc(F)cc(C(F)(F)F)c1 (mixture of isomers) [Compound I-1192],≤ 100 nM

row,Compound,IC50
1,CC(=O)Nc1cccc2c1C(c1cc(F)ccc1Cl)NC2=O (stereo not shown) [Compound I-1581],10000 to 100000 nM
2,"Cc1ccccc1C1(C)NC(=O)c2cccc(NC(=O)c3csc4ccccc34)c21 (stereo not shown) [Compound I-80, N-(3-Methyl-1-oxo-3-(o-tolyl)isoindolin-4-yl)benzo[b]thiophene-3-carboxamide]",10000 to 100000 nM
3,O=C(Nc1cc(Br)cc2c1[C@H](c1c(F)cccc1Cl)NC2=O)c1cc(F)cc(C(F)(F)F)c1 [Compound I-680],≤ 100 nM
4,COc1ccccc1C1NC(=O)c2cccc(NC(=O)c3csc4ccccc34)c21 (stereo not shown) [Compound I-18],1000 to 10000 nM
5,NCC(O)c1cc(NC(=O)c2cc(F)cc(C(F)(F)F)c2)c2c(c1)C(=O)NC2c1cc(F)ccc1Cl (stereo not shown) [Compound I-1290],100 to 500 nM
6,O=C1CC(c2cc(NC(=O)c3cc(F)cc(C(F)(F)F)c3)c3c(c2)C(=O)NC3c2cc(F)ccc2Cl)CN1 (stereo not shown) [Compound I-1360],≤ 100 nM
7,"O=C1N[C@H](c2ccccc2Cl)c2c(NC(=O)N3C[C@](O)(C(F)(F)F)c4cc(F)ccc43)cccc21 (single isomer, unassigned) [Compound I-2687]",1000 to 10000 nM
8,"O=C1NC(c2cc(F)ccc2Cl)c2c(NC(=O)N3C[C@@H](C(F)(F)F)[C@@H](O)C3)cc(-c3ccc4ncnn4c3)cc21 (single isomer, unassigned) [Compound I-1978]",1000 to 10000 nM
9,N#Cc1ncc(-c2cc(NC(=O)c3cc(F)cc(C(F)(F)F)c3)c3c(c2)C(=O)NC3c2cc(F)ccc2Cl)cn1 (stereo not shown) [Compound I-886],≤ 100 nM
10,O=C(Nc1cc(CN2CCC(F)(F)C2)cc2c1C(c1cc(F)ccc1Cl)NC2=O)c1cc(F)cc(C(F)(F)F)c1 (stereo not shown) [Compound I-353],≤ 100 nM
11,"O=C(Nc1cc(OC[C@H]2CCO2)cc2c1[C@H](c1cc(F)ccc1Cl)NC2=O)c1cc(F)cc(C(F)(F)F)c1 (single isomer, unassigned) [Compound I-1518]",≤ 100 nM
12,O=C(Nc1cc(CC2(O)CC2)cc2c1C(c1cc(F)ccc1Cl)NC2=O)c1cc(F)cc(C(F)(F)F)c1 (stereo not shown) [Compound I-644],≤ 100 nM
13,N#Cc1cc(-c2ccc3ncnn3c2)cc2c1C(c1cc(F)ccc1Cl)NC2=O (stereo not shown) [Compound I-1801],1000 to 10000 nM
14,O=C(NCCC(O)CO)c1cc(NC(=O)c2cc(F)cc(C(F)(F)F)c2)c2c(c1)C(=O)NC2c1cc(F)ccc1Cl (stereo not shown) [Compound I-1493],≤ 100 nM
15,"O=C1N[C@@H](c2cc(F)ccc2Cl)c2c(NC(=O)N3C[C@H](O)c4c3ccc(F)c4F)cccc21 (single isomer, unassigned) [Compound I-2312]",1000 to 10000 nM
16,O=C1NC(c2cc(F)ccc2Cl)c2c(NC3CCNCC3)cc(-c3ccc4ncnn4c3)cc21 (stereo not shown) [Compound I-2024],10000 to 100000 nM
17,"Cn1cc(-c2cc(NC(=O)c3cc(F)cc(C(F)(F)F)c3)c3c(c2)C(=O)N[C@H]3c2cc(F)ccc2Cl)ccc1=O (single isomer, unassigned) [Compound I-702]",≤ 100 nM
18,Cc1ccccc1C1NC(=O)c2cccc(Nc3cc4ccccc4nn3)c21 (stereo not shown) [Compound I-27],10000 to 100000 nM
19,O=C(Nc1cc(-c2ccc3nnc(Cl)n3c2)cc2c1[C@@H](c1cc(F)ccc1Cl)NC2=O)c1cc(F)cc(C(F)(F)F)c1 [Compound I-1676],100 to 500 nM
20,O=C(Nc1cc(CS(=O)(=O)c2ccccc2)cc2c1C(c1cc(F)ccc1Cl)NC2=O)c1cc(F)cc(C(F)(F)F)c1 (stereo not shown) [Compound I-1436],≤ 100 nM
21,O=C(Nc1cc(NC2CCC(O)C2)cc2c1C(c1cc(F)ccc1Cl)NC2=O)c1cc(F)cc(C(F)(F)F)c1 (stereo not shown) [Compound I-359],≤ 100 nM
22,"CC(=O)N1CCC[C@@H]1COc1cc(NC(=O)c2cc(F)cc(C(F)(F)F)c2)c2c(c1)C(=O)NC2c1cc(F)ccc1Cl (single isomer, unassigned) [Compound I-1467]",≤ 100 nM

row,Compound,IC50
1,O=C(Nc1cc(C#CC2CC(F)(F)C2)cc2c1C(c1cc(F)ccc1Cl)NC2=O)c1cc(F)cc(C(F)(F)F)c1 (stereo not shown) [Compound I-1194],100 to 500 nM
2,Cc1ccccc1C1NC(=O)c2cccc(NC(=O)c3noc4ccccc34)c21 (stereo not shown) [Compound I-41],10000 to 100000 nM
3,CS(=O)(Cc1cc(NC(=O)c2cc(F)cc(C(F)(F)F)c2)c2c(c1)C(=O)NC2c1cc(F)ccc1Cl)=NC#N (stereo not shown) [Compound I-1312],≤ 100 nM
4,"N#C[C@H]1C[C@H](c2cc(NC(=O)c3cc(F)cc(C(F)(F)F)c3)c3c(c2)C(=O)N[C@@H]3c2cc(F)ccc2Cl)C1 (single isomer, unassigned) [Compound I-1325]",100 to 500 nM
5,O=C(NCCC(O)C(F)(F)F)c1cccc2c1C(c1cc(F)ccc1Cl)NC2=O (stereo not shown) [Compound I-2094],10000 to 100000 nM
6,O=C(Nc1cc(-c2ccnc(C(F)F)c2)cc2c1[C@H](c1cc(F)ccc1Cl)NC2=O)c1cc(F)cc(C(F)(F)F)c1 [Compound I-2003],≤ 100 nM
7,O=C(Nc1cc(-c2ccn3ncnc3n2)cc2c1C(c1cc(F)ccc1Cl)NC2=O)c1cc(F)cc(C(F)(F)F)c1 (stereo not shown) [Compound I-1677],≤ 100 nM
8,Cn1cc(-c2cc(NC(=O)c3cc(F)cc(C(F)(F)F)c3)c3c(c2)C(=O)N[C@H]3c2cc(F)ccc2Cl)c(C#N)n1 [Compound I-1738],≤ 100 nM
9,CC(C)(O)C(=O)Nc1cc(NC(=O)c2cc(F)cc(C(F)(F)F)c2)c2c(c1)C(=O)NC2c1cc(F)ccc1Cl (stereo not shown) [Compound I-591],≤ 100 nM
10,O=C(Nc1cc(-c2ccc3ncnn3c2)nc2c1[C@H](c1cc(F)ccc1Cl)NC2=O)c1cc(F)cc(C(F)(F)F)c1 [Compound I-1229],≤ 100 nM
11,Cc1ccccc1C1NC(=O)c2cc(CN)cc(NC(=O)c3cc(F)cc(C(F)(F)F)c3)c21 (stereo not shown) [Compound I-260],100 to 500 nM
12,O=C1NC(c2cc(F)ccc2Cl)c2c(NC(=O)N3CCC(C4CC4)C3)cccc21 (stereo not shown) [Compound I-2398],10000 to 100000 nM
13,O=C(Nc1cc(Br)cc2c1C(c1cc(F)ccc1Cl)NC2=O)c1cccc(SC(F)(F)F)c1 (stereo not shown) [Compound I-1314],1000 to 10000 nM
14,"N#C[C@H]1C[C@@H](c2cc(NC(=O)c3cc(F)cc(C(F)(F)F)c3)c3c(c2)C(=O)N[C@H]3c2cc(F)ccc2Cl)C1 (single isomer, unassigned) [Compound I-1328]",100 to 500 nM
15,O=C1NC(c2cc(F)ccc2Cl)c2c(NC(=O)C3COCCO3)cc(-c3ccc4ncnn4c3)cc21 (stereo not shown) [Compound I-1910],10000 to 100000 nM
16,Cn1cc(-c2cc(NC(=O)c3cc(F)cc(Cl)c3)c3c(n2)C(=O)NC3c2cc(F)ccc2Cl)ccc1=O (stereo not shown) [Compound I-456],≤ 100 nM
17,O=C(Nc1cc(-c2n[nH]c3ccncc23)cc2c1C(c1cc(F)ccc1Cl)NC2=O)c1cc(F)cc(C(F)(F)F)c1 (stereo not shown) [Compound I-938],100 to 500 nM
18,O=C1CCc2cc(F)cc(C(=O)Nc3cccc4c3C(c3cc(F)ccc3Cl)NC4=O)c2N1 (stereo not shown) [Compound I-1545],10000 to 100000 nM
19,O=C1Cc2c(cccc2-c2cc(NC(=O)c3cc(F)cc(C(F)(F)F)c3)c3c(c2)C(=O)NC3c2cc(F)ccc2Cl)N1 (stereo not shown) [Compound I-1034],≤ 100 nM
20,Cc1ccccc1C1NC(=O)c2cc(Br)cc(NC(=O)c3cc(F)cc(C4CC4)c3)c21 (stereo not shown) [Compound I-534],1000 to 10000 nM
